According to US7385026B1, “Modified ghrelin polypeptides” (priority 1999, dated 2008):
Several values for one entry are separate records, joined by “and”; a condition that tells them apart may be missing. Equal entries are not always repeated. Where two headings read alike, the source gives them in different places. One block for each compound: values may come before it.

Columns and labels:
[1] = molecular target: carboxyl-terminal antibody (anti-[C-Cys]-rat ghrelin [13-28] antigen); assay: Radioimmunoassay: inhibition of binding of labeled rat ghrelin to carboxyl-terminal antibody; design: species or system rabbit; details: FIG. 9b, amount per reaction tube
Description: Using antibodies raised against amino- and carboxyl-terminal rat ghrelin peptides as antigens, ghrelin in various living tissues was quantified by radioimmunoassay (RIA).
Rabbits were immunized with [C-Cys]-rat ghrelin [1-11] (rat ghrelin peptide of amino acids 1 to 11 from amino-terminal having cysteine bound to the carboxyl-terminal thereof) and [C-Cys]-rat ghrelin [13-28] (rat ghrelinpeptideof aminoacids 13 to 28 from amino-terminal having cysteine bound to the carboxyl-terminal thereof) as antigens, to form amino-terminal antibody (anti-[C-Cys]-rat ghrelin [1-11] antigen) and carboxyl-terminal antibody (anti-[C-Cys]-rat ghrelin [13-28] antigen) respectively.
That is, it was confirmed that the carboxyl-terminal antibodyhas the same affinity for ghrelin modified with fatty acid and for ghrelin from which fatty acid was released.

[2] = system: rat pituitary cultured cells; assay: Intracellular calcium change in primary anterior pituitary cells; format: cell-based; details: FIG. 5a
rat GHS-receptor (GHR-R) = molecular target: T1, rat GHS-receptor (GHR-R) (Rattus norvegicus, UniProt O08725); assay: Ca-releasing activity (increase in intracellular calcium) in CHO-GHSR62 cells, FLIPR; format: cell-based
T1 construct: A full-length cDNA for rat GHR-R was obtained by RT-PCR; expressed in transfected cells
Procedure, shortened: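 CHO cells stably expressing full-length rat GHS-R (CHO-GHSR62) were cultured 12–15 h, loaded with 4 μM Fluo4 for 1 h and washed with Hank's BSS containing 20 mM Hepes and 2.5 mM probenecid. Ca-releasing activity of ghrelin peptides, fragments or derivatives was read by FLIPR as the fluorescence change after sample addition.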

[3] = system: amino-terminal antibody (anti-[C-Cys]-rat ghrelin [1-11] antigen); assay: Radioimmunoassay: inhibition of binding of labeled rat ghrelin to amino-terminal antibody; design: species or system rabbit
IGS-SD strain rats = assay: GH-releasing activity of long-chain ghrelin derivatives in rat (plasma GH 15 min after i.v.); format: in vivo
Protocol: Fifteen minutes after administration, plasma was collected, and the concentration of GH in plasma was measured by radioimmunoassay (Biotrak/Amersham). Separately, 0.2% bovine serum albumin (BSA)-physiological saline, 6 nmol/kg rGhrelin and hGhrelin, or 80 nmol/kg Ipamorelin (Compound 80) was administered into other rats as the control, respectively, and the concentrations of GH in plasma in 15 minutes after administration were compared (for each sample, n=3).

Wistar strain male rats = assay: Change of GH level in plasma over time after i.v. administration; format: in vivo, rat; details: 5 μg/head i.v.; for GH level in plasma, individual rats (Rat 1-5): listed as [Cys^3(Octyl)]-rat ghrelin
Protocol: Physiological saline as the control and rat ghrelin (5 μg/head) were also administered and compared with Compound 18.

Wister male rats = assay: Cell growth: 3H-thymidine incorporation into bone marrow, duodenum, jejunum; format: in vivo, rat; details: 20 μg/kg i.v., 18 hours after administration
Protocol: To examine the action of administered ghrelin on promotion of cell growth, the f ollowing experiment was conducted. Twenty μg/kg of rat ghrelin or thioether-type rat ghrelin (Compound 18 [Cys^3(octyl)]-hghrelin) was administered into tail veins of Wister male rats (7.5-week-old) respectively. Seventeen hours after administration, ^3H-thymidine was administered into tail veins, and 1 hour thereafter, duodenum, jejunum and bone marrow were excised. The incorporation of […] to DNA fractions of these tissues was measured in order to examine the cell growth-promoting action of ghrelin and ghrelin derivatives. The tissues were cut thin and homogenized using a Polytron homogenizer, and after centrifugation, the supernatant was precipitated with trichloroacetic acid to give a DNA fraction. The radioactivity of the DNA fraction was measured by a liquid scintillation counter.
Numerical values show the ratio (%) of incorporation of radioisotope relative to the mean (in triplicate) of the comparative example (i.e. the group given physiological saline).

[4] = CHO-GHSR62 cells (CHO cells expressing rat GHS receptor), FLIPR, read-out: Ca-releasing activity EC50

T1 sequence (O08725 whole entry): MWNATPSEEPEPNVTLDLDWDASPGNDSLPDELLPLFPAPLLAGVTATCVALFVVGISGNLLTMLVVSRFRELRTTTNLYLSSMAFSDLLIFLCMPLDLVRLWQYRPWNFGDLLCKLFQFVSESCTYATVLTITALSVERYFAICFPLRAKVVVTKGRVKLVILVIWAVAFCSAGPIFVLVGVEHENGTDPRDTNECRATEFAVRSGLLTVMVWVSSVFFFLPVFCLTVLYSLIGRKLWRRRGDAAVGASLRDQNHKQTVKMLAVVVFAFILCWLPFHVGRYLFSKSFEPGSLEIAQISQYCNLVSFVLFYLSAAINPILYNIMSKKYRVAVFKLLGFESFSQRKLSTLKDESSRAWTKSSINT

- IC50 in binding between radioisotope-labeled rat ghrelin and the carboxyl-terminal antibody [1]: 44 fmol
- reaction / affinity with the amino-terminal antibody (in words) [3]: did not react
Structure (SMILES): CC(C)C[C@H](NC(=O)[C@H](CCCCN)NC(=O)[C@H](C)NC(=O)[C@@H]1CCCN1C(=O)[C@@H]1CCCN1C(=O)[C@H](CCCCN)NC(=O)[C@H](CCCCN)NC(=O)[C@H](CO)NC(=O)[C@H](CCC(=O)O)NC(=O)[C@H](CCCCN)NC(=O)[C@H](CCCNC(=N)N)NC(=O)[C@H](CCC(N)=O)NC(=O)[C@H](CCC(N)=O)NC(=O)[C@H](C)NC(=O)[C@H](CCCCN)NC(=O)[C@H](CCC(N)=O)NC(=O)[C@H](Cc1c[nH]cn1)NC(=O)[C@H](CCC(=O)O)NC(=O)[C@@H]1CCCN1C(=O)[C@H](CO)NC(=O)[C@H](CC(C)C)NC(=O)[C@H](Cc1ccccc1)NC(=O)[C@H](CO)NC(=O)[C@H](CO)NC(=O)CN)C(=O)N[C@@H](CCC(N)=O)C(=O)N1CCC[C@H]1C(=O)N[C@@H](CCCNC(=N)N)C(=O)O [Compound 7, [Ser^3]-rat Ghrelin]
- change in intracellular calcium ion concentration [2]: slightly increased Ca-releasing activity
- Ca-releasing activity (in words) (rat GHS-receptor (GHR-R); CHO-GHSR62 cells): did not show a significant Ca-releasing activity

- EC50 (rat GHS-receptor (GHR-R); [4]): 1.7 nM
- EC50 (rat GHS-receptor (GHR-R); Table 3, Example 9: protease fragments or synthetic peptides, CHO-GHSR62 cells, read-out: Ca-releasing activity (EC50)): 2.6 nM
- cross-reactivity with the amino-terminal antibody [3]: 20%
Structure (SMILES): CCCCCCCCCC(=O)OC[C@H](NC(=O)[C@H](CO)NC(=O)CN)C(=O)N[C@@H](Cc1ccccc1)C(=O)N[C@@H](CC(C)C)C(=O)N[C@@H](CO)C(=O)N1CCC[C@H]1C(=O)N[C@@H](CCC(=O)O)C(=O)N[C@@H](Cc1c[nH]cn1)C(=O)N[C@@H](CCC(N)=O)C(=O)N[C@@H](CCCCN)C(=O)N[C@@H](C)C(=O)N[C@@H](CCC(N)=O)C(=O)N[C@@H](CCC(N)=O)C(=O)N[C@@H](CCCNC(=N)N)C(=O)N[C@@H](CCCCN)C(=O)N[C@@H](CCC(=O)O)C(=O)N[C@@H](CO)C(=O)N[C@@H](CCCCN)C(=O)N[C@@H](CCCCN)C(=O)N1CCC[C@H]1C(=O)N1CCC[C@H]1C(=O)N[C@@H](C)C(=O)N[C@@H](CCCCN)C(=O)N[C@@H](CC(C)C)C(=O)N[C@@H](CCC(N)=O)C(=O)N1CCC[C@H]1C(=O)N[C@@H](CCCNC(=N)N)C(=O)O [Compound 12, [Ser^3(Decanoyl)]-rGhrelin]

- EC50 (rat GHS-receptor (GHR-R); [4]): 5.4 nM
Structure (SMILES): CCCCCCCCSC[C@H](NC(=O)[C@H](CO)NC(=O)CN)C(=O)N[C@@H](Cc1ccccc1)C(=O)N[C@@H](CC(C)C)C(=O)N[C@@H](CO)C(=O)N1CCC[C@H]1C(=O)N[C@@H](CCC(=O)O)C(=O)N[C@@H](Cc1c[nH]cn1)C(=O)N[C@@H](CCC(N)=O)C(=O)N[C@@H](CCCCN)C(=O)N[C@@H](C)C(=O)N[C@@H](CCC(N)=O)C(=O)N[C@@H](CCC(N)=O)C(=O)N[C@@H](CCCNC(=N)N)C(=O)N[C@@H](CCCCN)C(=O)N[C@@H](CCC(=O)O)C(=O)N[C@@H](CO)C(=O)N[C@@H](CCCCN)C(=O)N[C@@H](CCCCN)C(=O)N1CCC[C@H]1C(=O)N1CCC[C@H]1C(=O)N[C@@H](C)C(=O)N[C@@H](CCCCN)C(=O)N[C@@H](CC(C)C)C(=O)N[C@@H](CCC(N)=O)C(=O)N1CCC[C@H]1C(=O)N[C@@H](CCCNC(=N)N)C(=O)O [Compound 18, [Cys^3(Octyl)]-rGhrelin]
- GH level in plasma in 15 min. after administration, M ± S.D. (IGS-SD strain rats; dose 30 nmol/kg i.v., n=3): 2494 ± 253 ng/mL
- GH level in plasma in 15 min. after administration, individual rats (Rat 1-3) (IGS-SD strain rats; dose 30 nmol/kg i.v., rats under Nembutal): 2786 ng/mL and 2342 ng/mL and 2354 ng/mL
- GH-releasing activity (in words) (IGS-SD strain rats; i.v., plasma GH at 15 minutes): strong GH-releasing activity
- GH level in plasma, Mean ± S.D. (Wistar strain male rats; time 0 min): 120 ± 146 ng/mL
- GH level in plasma, individual rats (Rat 1-5) (Wistar strain male rats; time 0 min): 33 ng/mL and 32 ng/mL and 377 ng/mL and 101 ng/mL and 59 ng/mL
- GH level in plasma, Mean ± S.D. (Wistar strain male rats; time 5 min): 450 ± 133 ng/mL
- GH level in plasma, individual rats (Rat 1-5) (Wistar strain male rats; time 5 min): 530 ng/mL and 613 ng/mL and 338 ng/mL and 294 ng/mL and 476 ng/mL
- GH level in plasma, Mean ± S.D. (Wistar strain male rats; time 10 min): 783 ± 324 ng/mL
- GH level in plasma, individual rats (Rat 1-5) (Wistar strain male rats; time 10 min): 959 ng/mL and 1060 ng/mL and 687 ng/mL and 258 ng/mL and 949 ng/mL
- GH level in plasma, Mean ± S.D. (Wistar strain male rats; time 15 min): 1093 ± 506 ng/mL
- GH level in plasma, individual rats (Rat 1-5) (Wistar strain male rats; time 15 min): 1451 ng/mL and 1561 ng/mL and 927 ng/mL and 300 ng/mL and 1229 ng/mL
- GH level in plasma, Mean ± S.D. (Wistar strain male rats; time 20 min): 1067 ± 445 ng/mL
- GH level in plasma, individual rats (Rat 1-5) (Wistar strain male rats; time 20 min): 1299 ng/mL and 1359 ng/mL and 900 ng/mL and 358 ng/mL and 1417 ng/mL
- GH level in plasma, Mean ± S.D. (Wistar strain male rats; time 30 min): 589 ± 229 ng/mL
- GH level in plasma, individual rats (Rat 1-5) (Wistar strain male rats; time 30 min): 800 ng/mL and 726 ng/mL and 469 ng/mL and 245 ng/mL and 704 ng/mL
- GH level in plasma, Mean ± S.D. (Wistar strain male rats; time 60 min): 132 ± 53 ng/mL
- GH level in plasma, individual rats (Rat 1-5) (Wistar strain male rats; time 60 min): 220 ng/mL and 122 ng/mL and 98 ng/mL and 86 ng/mL and 133 ng/mL
- incorporation of 3H-thymidine relative to the mean of the physiological saline group, Bone marrow (in tissues) (Wister male rats): 144.5%
- incorporation of 3H-thymidine relative to the mean of the physiological saline group, Duodenum (in DNA fraction) (Wister male rats): 114.0%
- incorporation of 3H-thymidine relative to the mean of the physiological saline group, Jejunum (in DNA fraction) (Wister male rats): 151.0%

- EC50 (rat GHS-receptor (GHR-R); [4]): 16 nM
- cross-reactivity with the amino-terminal antibody [3]: 0.3%
Structure (SMILES): CCCCCC(=O)OC[C@H](NC(=O)[C@H](CO)NC(=O)CN)C(=O)N[C@@H](Cc1ccccc1)C(=O)N[C@@H](CC(C)C)C(=O)N[C@@H](CO)C(=O)N1CCC[C@H]1C(=O)N[C@@H](CCC(=O)O)C(=O)N[C@@H](Cc1c[nH]cn1)C(=O)N[C@@H](CCC(N)=O)C(=O)N[C@@H](CCCCN)C(=O)N[C@@H](C)C(=O)N[C@@H](CCC(N)=O)C(=O)N[C@@H](CCC(N)=O)C(=O)N[C@@H](CCCNC(=N)N)C(=O)N[C@@H](CCCCN)C(=O)N[C@@H](CCC(=O)O)C(=O)N[C@@H](CO)C(=O)N[C@@H](CCCCN)C(=O)N[C@@H](CCCCN)C(=O)N1CCC[C@H]1C(=O)N1CCC[C@H]1C(=O)N[C@@H](C)C(=O)N[C@@H](CCCCN)C(=O)N[C@@H](CC(C)C)C(=O)N[C@@H](CCC(N)=O)C(=O)N1CCC[C@H]1C(=O)N[C@@H](CCCNC(=N)N)C(=O)O [Compound 11, [Ser^3(Hexanoyl)]-rGhrelin]
